Test results from patent publication US20250333397A1 (REMIX THERAPEUTICS INC., priority 2021, published 2025).
Like-named read-outs stand apart in the source and are kept apart here.

How the values were obtained:
Format in all cases: cell-based, human
[1] = system: Target C mRNA; assay: RT-qPCR splicing assay panel, Target C canonical junction (CJ) mRNA
In short: (§1)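 CJ and AJ junction levels were quantified by RT-qPCR on lysates, with housekeeper ΔCt normalized to DMSO (ΔΔCt) and expressed as RQ = 2^(-ΔΔCt). Before lysis, K562 or A673 cells had 24 h compound exposure at 37 °C. Dosing was 11 points, 3-fold, from 10 uM final, with DMSO at most 0.25%.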

[2] = system: HTT mRNA; assay: RT-qPCR splicing assay, HTT canonical (CJ) and alternative (AJ) junction mRNA; conditions: for AC50: read-out: HTT AJ (AC50, increase in AJ mRNA)
In short: as §1

[3] = system: MYB mRNA; assay: RT-qPCR splicing assay, MYB canonical (CJ) and alternative (AJ) junction mRNA; conditions: for AC50: read-out: MYB AJ (AC50, increase in AJ mRNA)
In short: as §1

[4] = system: SMN2 mRNA; assay: RT-qPCR splicing assay panel, SMN2 canonical junction (CJ) mRNA
In short: as §1

[5] = Homo sapiens, canonical junction (CJ) mRNA, RT-qPCR panel, Table 4A, read-out: Target C, decrease in CJ mRNA levels, IC50
[6] = Homo sapiens, 24 h, Table 3A, A673 or K562 cells, 24 h treatment
[7] = Homo sapiens, 24 h, Table 3A, A673 or K562 cells, 24 h treatment, read-out: HTT CJ (IC50, decrease in CJ mRNA)
[8] = Homo sapiens, canonical junction (CJ) mRNA, RT-qPCR panel, Table 4A, read-out: HTT, decrease in CJ mRNA levels, IC50
[9] = Homo sapiens, 24 h, Table 3A, A673 or K562 cells, 24 h treatment, read-out: MYB CJ (IC50, decrease in CJ mRNA)
[10] = Homo sapiens, canonical junction (CJ) mRNA, RT-qPCR panel, Table 4A, read-out: MYB, decrease in CJ mRNA levels, IC50
[11] = Homo sapiens, canonical junction (CJ) mRNA, RT-qPCR panel, Table 4A, read-out: SMN2, decrease in CJ mRNA levels, IC50
[12] = Homo sapiens, Table 4B, gene panel, read-out: Target C (IC50, decrease in CJ mRNA levels)
[13] = Homo sapiens, 24 h, Table 3B, A673 or K562 cells, 24 h treatment
[14] = Homo sapiens, 24 h, Table 3B, A673 or K562 cells, 24 h treatment, read-out: HTT CJ (IC50, decrease in CJ mRNA)
[15] = Homo sapiens, Table 4B, gene panel, read-out: HTT (IC50, decrease in CJ mRNA levels)
[16] = Homo sapiens, 24 h, Table 3B, A673 or K562 cells, 24 h treatment, read-out: MYB CJ (IC50, decrease in CJ mRNA)
[17] = Homo sapiens, Table 4B, gene panel, read-out: MYB (IC50, decrease in CJ mRNA levels)
[18] = Homo sapiens, Table 4B, gene panel, read-out: SMN2 (IC50, decrease in CJ mRNA levels)
[19] = Table 3A, A673 or K562 cells, 24 h treatment

Row | Compound | IC50 [1, 5] [nM] | AC50 [2, 6] [nM] | IC50 [2, 7] [nM] | IC50 [2, 8] [nM] | AC50 [3, 6] [nM] | IC50 [3, 9] [nM] | IC50 [3, 10] [nM] | IC50 [4, 11] [nM] | other results
1 | Cc1ncc(-c2ccc(-c3ccc(N4CC[C@H](NCC5CC5)C4)nn3)c(O)c2)s1 [Compound 380, 2-{6-[(3S)-3-[(cyclopropylmethyl)amino]pyrrolidin-1-yl]pyridazin-3-yl}-5-(2-methyl-1,3-thiazol-5-yl)phenol] | < 100 | < 100 | < 100 | < 100 | < 100 | < 100 | < 100 | < 100 | 
2 | Cc1nc2cc(O)c(-c3ccc(N4CC[C@@H](NC(C)(C)C)C4)nn3)cc2o1 [Compound 812] |  |  |  |  |  |  |  |  | IC50 [1, 12]: 100 to 1000 nM; AC50 [2, 13]: < 100 nM; IC50 [2, 14]: < 100 nM; IC50 [2, 15]: < 100 nM; AC50 [3, 13]: 100 to 1000 nM; IC50 [3, 16]: 100 to 1000 nM; IC50 [3, 17]: 100 to 1000 nM; IC50 [4, 18]: < 100 nM
3 | COc1cc(-c2cc(O)c(-c3ccc(N4CC[C@@H](NC5(C)CCC5)C4)nn3)cc2F)cnn1 [Compound 286] | 100 to 1000 | 100 to 1000 | < 100 | < 100 | 1000 to 10000 | 1000 to 10000 | 1000 to 10000 | < 100 | 
4 | Cc1nc2ccc(-c3ccc(-c4ccc(N5CCC(NC6CCC6)C5)nn4)c(O)c3)cc2o1 (stereo not drawn) [Compound 316] | 100 to 1000 | 100 to 1000 | 100 to 1000 | 100 to 1000 | 100 to 1000 | 1000 to 10000 | 1000 to 10000 | 100 to 1000 | 
5 | Oc1cc(-c2cn[nH]c2)ccc1-c1ccc(N2CCC(NC3CC3)C2)nn1 (stereo not drawn) [Compound 100, 2-(6-(3-(cyclopropylamino)pyrrolidin-1-yl)pyridazin-3-yl)-5-(1H-pyrazol-4-yl)phenol] |  |  |  |  |  |  |  |  | IC50 ([1]; canonical junction (CJ) mRNA, RT-qPCR panel, Table 4A, read-out: Target C, decrease in CJ mRNA levels, IC50): < 100 nM; AC50 [2, 19]: < 100 nM; IC50 ([2]; Table 3A, A673 or K562 cells, 24 h treatment, read-out: HTT CJ (IC50, decrease in CJ mRNA)): < 100 nM; IC50 ([2]; canonical junction (CJ) mRNA, RT-qPCR panel, Table 4A, read-out: HTT, decrease in CJ mRNA levels, IC50): < 100 nM; AC50 [3, 19]: 100 to 1000 nM; IC50 ([3]; Table 3A, A673 or K562 cells, 24 h treatment, read-out: MYB CJ (IC50, decrease in CJ mRNA)): 100 to 1000 nM; IC50 ([3]; canonical junction (CJ) mRNA, RT-qPCR panel, Table 4A, read-out: MYB, decrease in CJ mRNA levels, IC50): 100 to 1000 nM; IC50 ([4]; canonical junction (CJ) mRNA, RT-qPCR panel, Table 4A, read-out: SMN2, decrease in CJ mRNA levels, IC50): < 100 nM
6 | Cc1nc(-c2cc(O)c(-c3ccc(N4CCC(NC5CCC5)C4)nn3)cc2F)cs1 (stereo not drawn) [Compound 398] | 1000 to 10000 | 1000 to 10000 | 1000 to 10000 | 1000 to 10000 | 1000 to 10000 | 1000 to 10000 | 1000 to 10000 | 1000 to 10000 | 
7 | Cn1cc2cc(-c3ccc(-c4ccc(N5CCC(NC6CCC6)C5)nn4)c(O)c3)cc(F)c2n1 (stereo not drawn) [Compound 328] | 100 to 1000 | < 100 | < 100 | < 100 | 100 to 1000 | 100 to 1000 | 100 to 1000 | < 100 | 
8 | Oc1cc(-c2cnn3c2CCC3)ccc1-c1ccc(N2CCC(NC3CCC3)C2)nn1 (stereo not drawn) [Compound 362] | 100 to 1000 | 1000 to 10000 | 100 to 1000 | 100 to 1000 | 100 to 1000 | 1000 to 10000 | 1000 to 10000 | 100 to 1000 | 
9 | COc1cc2cc(-c3ccc(N4CCC(NC(C)(C)C)C4)nn3)c(O)cc2nn1 (stereo not drawn) [Compound 819] |  |  |  |  |  |  |  |  | IC50 [1, 12]: 1000 to 10000 nM; AC50 [2, 13]: 1000 to 10000 nM; IC50 [2, 14]: 1000 to 10000 nM; IC50 [2, 15]: 1000 to 10000 nM; AC50 [3, 13]: 1000 to 10000 nM; IC50 [3, 16]: 1000 to 10000 nM; IC50 [3, 17]: 1000 to 10000 nM; IC50 [4, 18]: 100 to 1000 nM
10 | COc1cc(-c2cc(O)c(-c3ccc(N4CC[C@](C)(NC5CCC5)C4)nn3)cc2F)cnn1 (single isomer, unassigned) [Compound 309, 2-{6-[3-(cyclobutylamino)-3-methylpyrrolidin-1-yl]pyridazin-3-yl}-4-fluoro-5-(6-methoxypyridazin-4-yl)phenol] | 100 to 1000 | 100 to 1000 | < 100 | < 100 | 1000 to 10000 | 1000 to 10000 | 1000 to 10000 | < 100 | 
11 | COc1nccc(-c2ccc(-c3ccc(N4CCC(NCC5CC5)C4)nn3)c(O)c2)n1 (stereo not drawn) [Compound 368] | 1000 to 10000 | 100 to 1000 | 100 to 1000 | 100 to 1000 | 1000 to 10000 | 1000 to 10000 | 1000 to 10000 | 100 to 1000 | 
12 | CC(C)(C)N[C@H]1CCN(c2ccc(-c3ccc(-c4cn[nH]c4)cc3O)nn2)C1 [Compound 261] | < 100 | < 100 | < 100 | < 100 | 100 to 1000 | 100 to 1000 | 100 to 1000 | < 100 | 
13 | CC1(NC2CCN(c3ccc(-c4ccc(-c5cn[nH]c5)cc4O)nn3)C2)CC1 (stereo not drawn) [Compound 107, 2-(6-{3-[(1-methylcyclopropyl)amino]pyrrolidin-1-yl}pyridazin-3-yl)-5-(1H-pyrazol-4-yl)phenol] | < 100 | < 100 | < 100 | < 100 | < 100 | < 100 | < 100 | < 100 | 
14 | COc1cc(-c2ccc(-c3ccc(N4CCC(CNC5CCC5)C4)nn3)c(O)c2)cnn1 (stereo in doubt) [Compound 441, 2-{6-[(3S)-3-[(cyclobutylamino)methyl]pyrrolidin-1-yl]pyridazin-3-yl}-5-(6-methoxypyridazin-4-yl)phenol] | 100 to 1000 | 100 to 1000 | 100 to 1000 | 100 to 1000 | 100 to 1000 | 100 to 1000 | 100 to 1000 | < 100 | 
15 | COc1cc(-c2ccc(-c3ccc(OC4CC(C)(C)NC(C)(C)C4)nn3)c(O)c2)cnn1 [Compound 271] | < 100 | < 100 | < 100 | < 100 | 100 to 1000 | < 100 | < 100 | < 100 | 
